Usually MIC stands for the least concentration at which growth counts as inhibited. Low readings indicate inhibition by little substance, high ones a need for much substance.

Drawing on ChEMBL document CHEMBL1141053, “Synthesis and SAR of novel oxazolidinones: discovery of ranbezolid” (2005), this text covers MIC for one compound.

Format in all cases: functional
The subject of one experiment is Enterococcus faecalis. Description: In vitro minimum inhibitory concentration against Enterococcus faecalis ATCC 29212 after incubation in air at 35 degree C for 24 hr using agar dilution method. The conditions noted are these: ATCC 29212, 24 h.
The subject of experiment [1] is Staphylococcus aureus. The experiment in a line: In vitro minimum inhibitory concentration against Staphylococcus aureus ATCC 25923 after incubation in air at 35 degree C for 24 hr using agar dilution method. Particulars: ATCC 25923, 24 h.
A further experiment relates to Streptococcus pyogenes. Description: In vitro minimum inhibitory concentration against Streptococcus pyogenes ATCC 19615 after incubation in air at 35 degree C for 24 hr using agar dilution method. The conditions noted are these: ATCC 19615, 24 h. For orientation: In agar dilution, organisms are placed on agar that contains the substance at set levels.
A further experiment relates to Streptococcus pneumoniae. Description: In vitro minimum inhibitory concentration against Streptococcus pneumoniae ATCC 6303 after incubation in air at 35 degree C for 24 hr using agar dilution method. Particulars: ATCC 6303, 24 h.
A further experiment has as its system Enterococcus faecium. Description: In vitro minimum inhibitory concentration against vancomycin-resistant Enterococcus faecium 6A after incubation in air at 35 degree C for 24 hr using agar dilution method.
Experiment [2] relates to Staphylococcus aureus. Description: In vitro minimum inhibitory concentration against methicillin-resistant Staphylococcus aureus 562 after incubation in air at 35 degree C for 24 hr using agar dilution method.
For experiment [3], the system named is Escherichia coli. The experiment in a line: Minimum inhibitory concentration against Tol C pump deficient Escherichia coli strain.
Experiment [4] concerns Escherichia coli. The experiment in a line: Minimum inhibitory concentration against […] AB pump deficient Escherichia coli strain.
In experiment [5] the test system is Escherichia coli. The experiment in a line: Minimum inhibitory concentration against wild-type Escherichia coli strain.

Some results are limits rather than exact numbers.

With `CC(=O)NC[C@H]1CN(c2ccc(N3CCN(Cc4ccc([N+](=O)[O-])o4)CC3)c(F)c2)C(=O)O1.Cl` [RANBEZOLID CHLORIDE], the MIC against Enterococcus faecalis amounted to 2 µg/mL; with Staphylococcus aureus [1], 1 µg/mL; in the experiment on Streptococcus pyogenes, 0.125 µg/mL; against Streptococcus pneumoniae, 0.125 µg/mL; in the experiment on Enterococcus faecium, 2 µg/mL; with Staphylococcus aureus [2], 1 µg/mL. Further, the results for the minimal inhibitory concentration (MIC) with Escherichia coli [3], in the experiment with Escherichia coli [4] and against Escherichia coli [5] were 2 µg/mL, 2 µg/mL and at most 16 µg/mL, respectively.
